Data on 18 compounds can be found in US6812231B2, “Benzamidine derivative” (Ajinomoto Co., Inc., priority 1998, dated 2004).

For assay [1], the target named is T1, activated human blood coagulation factor X (Homo sapiens, UniProt P00742).
T1 construct: purchased Enzyme Research Co
Put plainly: Determination of activity of inhibiting the activated blood-coagulation factor X (chromogenic substrate, initial rate). Format: biochemical. The following applies: tris hydrochloride buffer pH 8.4, room temperature, absorbance 405 nm; for IC50: read-out: Activity of inhibiting activated blood coagulation factor X (pIC50) (converted). Here is the method:
Determination of Activity of Inhibiting the Activated Blood-coagulation Factor X
130 μl of 100 mM tris hydrochloride buffer adjusted to pH 8.4 was added to 10 μl of an aqueous solution of a compound to be tested. Then 10 μl of a 0.5 unit/ml solution of activated human blood coagulation factor X (a product of Enzyme Research Co.) in tris hydrochloride of pH 8.4 was added to the resultant mixture. After the incubation at room temperature for 10 minutes, 50 μl of a solution of N-benzoyl-L-isoleucyl-L-glutamyl-glycyl-L-arginyl-P-nitroanilide hydrochloride (a product of Peptide Institute, Inc.) adjusted to 0.8 mM with tris hydrochloride (pH 8.4) was added thereto. The absorbance was determined and then the initial reaction rate was determined. A control was prepared in the same manner as that described above except that the solution of the compound to be tested was replaced with 10 μl of tris hydrochloride buffer adjusted to pH 8.4. The absorbance was determined with MICROPLATE READER Model 3550-UV (a product of BIO RAD) at a wave length of 405 nm at intervals of 15 seconds for 16 minutes.

The next assay deals with T2, human thrombin (Homo sapiens, UniProt P00734).
T2 construct: solution of human thrombin (a product of SIGMA Co.); purchased SIGMA Co
Nature of the assay: Determination of thrombin-inhibiting activity (chromogenic substrate S-2238, initial rate). It counts as biochemical. The following applies: tris hydrochloride buffer pH 8.4, room temperature, absorbance 405 nm; for IC50: read-out: Thrombin-inhibiting activity (pIC50) (converted). Here is the method: Determination of Thrombin-inhibiting Activity
130 μl of 100 mM tris hydrochloride buffer adjusted to pH 8.4 was added to 10 μl of an aqueous solution of a test compound. Then 10 μl of a solution of human thrombin (a product of SIGMA Co.) adjusted to 2 units/ml with tris hydrochloride buffer of pH 8.4 was added to the resultant mixture. After the incubation at room temperature for 10 minutes, 50 μl of a solution of D-phenylalanyl-L-pipecolyl-L-arginyl-P-nitroanilide dihydrochloride (S-2238; a product of Daiichi Kagaku Yakuhin Co.) adjusted to 0.4 mM with tris hydrochloride buffer of pH 8.4 was added thereto. The absorbance was determined and then the initial reaction rate was determined. A control was prepared in the same manner as that described above except that the solution of the compound to be tested was replaced with 10 μl of tris hydrochloride buffer adjusted to pH 8.4. The absorbance was determined with MICROPLATE READER Model 3550-UV (a product of […]) at a wave length of 405 nm at intervals of 15 seconds for 16 minutes.

T1 sequence (P00742 235-488 limits assumed): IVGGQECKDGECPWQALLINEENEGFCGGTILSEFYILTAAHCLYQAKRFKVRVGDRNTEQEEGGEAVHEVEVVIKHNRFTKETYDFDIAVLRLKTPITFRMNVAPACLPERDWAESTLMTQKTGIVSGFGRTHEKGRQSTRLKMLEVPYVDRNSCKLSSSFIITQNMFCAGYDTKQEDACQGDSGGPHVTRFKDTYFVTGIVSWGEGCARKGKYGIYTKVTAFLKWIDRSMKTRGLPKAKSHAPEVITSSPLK
T1 sequence (P00742 41-179 partner limits assumed): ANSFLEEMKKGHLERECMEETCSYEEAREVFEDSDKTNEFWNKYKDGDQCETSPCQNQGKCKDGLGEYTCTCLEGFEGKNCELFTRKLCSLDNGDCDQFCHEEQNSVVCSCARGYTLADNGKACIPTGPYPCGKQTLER

With `N=C(N)c1ccc(CCCO)c(OCCNC(=O)C2CCN(c3ccncc3)CC2)c1.O=C(O)C(F)(F)F.O=C(O)C(F)(F)F` [Compd. of Ex. 43, N-[2-(5-amidino-2-hydroxypropylphenoxy)ethyl]-1-(1-(1-pyridine-4-yl)piperidine)carboxamide bistrifluoroacetate], the “Activity of inhibiting activated blood coagulation factor X (pIC50)” value in assay [1] is recorded as 7.8. In addition, on human thrombin, the “Thrombin-inhibiting activity (pIC50)” value is under 4.0.
The corresponding values for “3-[4-amidino-2-(2-((1-(1-methylpyridinium-4-yl)piperidine-4-carbonyl)amino)ethoxy)phenyl]-2-oxopropionic acid bistrifluoroacetate [Compd. of Ex. 52]” are 7.1 and 4.2.
The corresponding values for `N=C(N)c1ccc(CCC(=O)O)c(OCCNC(=O)C2CCN(c3ccncc3)CC2)c1.O=C(O)C(F)(F)F.O=C(O)C(F)(F)F` [Compd. of Ex. 6] are 7.4 and under 3.0.
The corresponding values for `CN1CCN=C1c1ccc(C(=O)NCCOc2cc(C(=N)N)ccc2CC(=O)C(=O)O)cc1.O=C(O)C(F)(F)F.O=C(O)C(F)(F)F` [Compd. of Ex. 51] are 8.1 and 4.3.
On to “(3R)-3-[4-amidino-2-(3-ethoxycarbonyl-2-(4-(1-(1-acetimidoyl)-4-piperidyloxy)benzoylamino)propoxy)phenyl]acrylic acid bistrifluoroacetate [Compd. of Ex. 8]”, for which the “Thrombin-inhibiting activity (pIC50)” value on human thrombin is given as under 3.0.
As to “ethyl (3R)-4-[5-amidino-2-(2-ethoxycarbonylethyl)phenoxy]-3-[4-(1-(1-acetimidoyl)-4-piperidyloxy)benzoylamino]butanoate bistrifluoroacetate [Compd. of Ex. 9]”, the “Thrombin-inhibiting activity (pIC50)” value at human thrombin is listed as 5.5.
For the compound “N-[2-(5-amidino-2-hydroxyphenoxy)ethyl]-1-(4-pyridyl)-4-piperidine-4-carboxamide bistrifluoroacetate [Compd. of Ex. 15]”, the “Activity of inhibiting activated blood coagulation factor X (pIC50)” value in assay [1] is given as 8. On human thrombin, the “Thrombin-inhibiting activity (pIC50)” value is under 4.0.
On to `N=C(N)c1ccc(CCC(=O)O)c(OC[C@@H](CC(=O)O)NC(=O)C2CCN(c3ccncc3)CC2)c1` [Compd. of Ex. 13, (3R)-4-[5-amidino-2-(2-carboxyethyl)phenoxy]-3-[(1-(pyridine-4-yl)piperidine-4-carbonyl)amino]butanoic acid bistrifluoroacetate], for which the IC50 in assay [1] was 25.1 nM; on human thrombin, over 794000 nM.
As for `N=C(N)c1ccc(CO)c(OCCNC(=O)C2CCN(c3ccncc3)CC2)c1.O=C(O)C(F)(F)F.O=C(O)C(F)(F)F` [Compd. of Ex. 37, N-[2-(5-amidino-2-hydroxymethylphenoxy)ethyl]-1-(1-(1-pyridine-4-yl)piperidine)carboxamide bistrifluoroacetate], the “Activity of inhibiting activated blood coagulation factor X (pIC50)” value in assay [1] was 7.3. At human thrombin, the “Thrombin-inhibiting activity (pIC50)” value is listed as under 4.0.
Take `CC(=N)N1CCC(Oc2ccc(C(=O)NCCOc3cc(C(=N)N)ccc3C=CC(=O)O)cc2)CC1.O=C(O)C(F)(F)F.O=C(O)C(F)(F)F` [Compd. of Ex. 2, 3-[4-amidino-2-(2-(4-(1-(1-acetimidoyl)-4-piperidyloxy)benzoylamino)ethoxy)phenyl]acrylic acid bistrifluoroacetate]: on human thrombin, the “Thrombin-inhibiting activity (pIC50)” value is under 3.0.
Take “3-[4-amidino-(2R)-2-((1-(pyridine-4-yl)piperidine-4-carbonyl)pyrrolidine-2-ylmethoxy)phenyl]propionic acid bistrifluoroacetate [Compd. of Ex. 26]”: the “Activity of inhibiting activated blood coagulation factor X (pIC50)” value in assay [1] came out at 7.8. For the same compound, on human thrombin, the “Thrombin-inhibiting activity (pIC50)” value was under 4.0.
`N=C(N)c1ccc(O)c(OC[C@@H](CC(=O)O)NC(=O)C2CCN(c3ccncc3)CC2)c1` [Compd. of Ex. 29, (3R)-4-(5-amidino-2-hydroxyphenoxy)-3-[(1-(pyridine-4-yl)piperidine-4-carbonyl)amino]butanoic acid bistrifluoroacetate]: the IC50 in assay [1] was 12.6 nM; on human thrombin, over 100000 nM.
As for `CCOC(=O)CCc1ccc(C(=N)N)cc1OCCNC(=O)C1CCN(c2ccncc2)CC1` [Compd. of Ex. 5, ethyl 3-[4-amidino-2-(2-((1-(pyridine-4-yl)piperidine-4-carbonyl)amino)ethoxy)phenyl]propionate bistrifluoroacetate], the IC50 is 63.1 nM in assay [1] and 6310 nM at human thrombin.
The corresponding values for `CC(=N)N1CCC(Oc2ccc(C(=O)NCCOc3cc(C(=N)N)ccc3O)cc2)CC1` [Compd. of Ex. 14, N-[2-(5-amidino-2-hydroxyphenoxy)ethyl]-4-(1-acetimidoyl-4-piperidyloxy)benzamide bistrifluoroacetate] are 15.8 nM and over 100000 nM.
With `COC(=O)c1ccc(C(=N)N)cc1OCCNC(=O)c1ccc(OC2CCN(C(C)=N)CC2)cc1.O=C(O)C(F)(F)F.O=C(O)C(F)(F)F` [Compd. of Ex. 38, methyl 4-amidino-2-[2-(4-[1-(1-acetimidoyl)-4-piperidyloxy]benzoylamino)ethoxy]benzoate bistrifluoroacetate], the “Thrombin-inhibiting activity (pIC50)” value at human thrombin was determined as 3.3.
For the compound `CC(=N)N1CCC(Oc2ccc(C(=O)N[C@@H](COc3cc(C(=N)N)ccc3O)CC(=O)O)cc2)CC1` [Compd. of Ex. 28, (3R)-4-(5-amidino-2-hydroxyphenoxy)-3-[4-(1-acetimidoyl-4-piperidyloxy)benzoylamino]butanoic acid bistrifluoroacetate], the IC50 in assay [1] is 15.8 nM; on human thrombin it was over 100000 nM.
With `CC(=N)N1CCC(Oc2ccc(C(=O)NCCOc3cc(C(=N)N)ccc3CCC(=O)O)cc2)CC1.O=C(O)C(F)(F)F.O=C(O)C(F)(F)F` [Compd. of Ex. 4, 3-[4-amidino-2-(2-(4-(1-(1-acetimidoyl)-4-piperidyloxy)benzoylamino)ethoxy)phenyl]propionic acid bistrifluoroacetate], the “Activity of inhibiting activated blood coagulation factor X (pIC50)” value in assay [1] is 7.5. At human thrombin, the “Thrombin-inhibiting activity (pIC50)” value was under 3.0.
For `CC(=N)N1CCC(Oc2ccc(C(=O)N[C@@H](COc3cc(C(=N)N)ccc3CCC(=O)O)CC(=O)O)cc2)CC1.O=C(O)C(F)(F)F.O=C(O)C(F)(F)F` [Compd. of Ex. 10, (3R)-4-[5-amidino-2-(2-carboxyethyl)phenoxy]-3-[4-(1-(1-acetimidoyl)-4-piperidyloxy)benzoylamino]butanoic acid bistrifluoroacetate], in that order: 7.4 and under 3.0.
